Assay results: US20060240127A1, “Use of agomelatine in obtaining medicaments intended for the treatment of bipolar disorders” (priority 2005, published 2006)

Tested on: patients suffering from bipolar disorders of type I
Assay: Clinical study of agomelatine in type I bipolar patients treated with lithium or valproate
Assay type: in vivo
Experimental: This study was carried out in 21 patients suffering from bipolar disorders of type I, treated for at least 6 months with lithium (n =14) or valproate (n=7). Treatment for 6 weeks with agomelatine (25 mg/day) was carried out. Of these patients, 19 continued treatment beyond the 6 weeks of acute treatment, and 11 of those continued treatment up to 1 year.

COc1ccc2cccc(CCNC(C)=O)c2c1 [agomelatine, N-[2-(7-methoxy-1-naphthyl)ethyl]acetamide]
patients in remission at the end of the one year treatment period (11 patients who continued treatment up to 1 year, agomelatine 25 mg/day with lithium or valproate): 10 out of the 11
manic or hypomanic episodes observed after the 6 weeks of treatment (19 patients who continued beyond 6 weeks, 11 of them up to 1 year, level compatible with a mood stabiliser): three
patients responded positively to the treatment (21 type I bipolar patients on lithium or valproate, agomelatine 25 mg/day, 6 weeks treatment): 81%
patients responded positively by the end of one week of treatment (21 type I bipolar patients on lithium or valproate, agomelatine 25 mg/day, end of one week): about 50%
